Experimental data published in patent publication US10251392B2, “Antimicrobial devices and compositions” (Avent, Inc., priority 2004, dated 2019).

Assay: Light stability (discoloration by light exposure)
Type: physicochemical
Details: ambient / room light
Experimental: The term “light stable” in the present context is meant to indicate either of two conditions; (i) no visible change in the color of the compositions of patient and wound care products after 24 hour exposure to light conditions typically encountered indoors in hospital, offices, or home that are normally used to aid visibility.

## [Ag+].c1ccc2[n-]cnc2c1 [silver benzimidazole complex]
  light sensitivity of the solid powder: remained unchanged
